The values below come from publication PMC11784839, “Monoaminergic neurotransmitters are bimodal effectors of tau aggregation” (Science Advances, 2025).

This assay deals with tau (Homo sapiens, UniProt P10636). Nature of the assay: MCE Phenols Library screening, tau biosensor cell seeding assay (AvZ). Type of assay: cell-based. The settings on record: for Z repl 1 / Z Repl 2: Z score; for Z repl 1 / raw data 1: replicate 1; for Z Repl 2 / raw data 2: replicate 2; for av Z: average Z score of the two replicates; for AvZ (average z score of seeding, SDs from the mean level of seeding): 10 μM phenol in cell cultures, AD brain homogenate preincubated 16 hours, two biological replicates, positive = catalyzes seeding, negative = inhibits.
Sequence of tau (P10636 623-695 limits assumed): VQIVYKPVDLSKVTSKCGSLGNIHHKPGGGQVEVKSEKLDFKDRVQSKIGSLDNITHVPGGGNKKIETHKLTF

Setting [1] is: tau biosensor seeding, MCE Phenols Library screen.
The mark [2] stands for this setting: average puncta of the two replicates.

`COC(=O)c1c2c(c3ccccc3c1O)OC(C)(C)C=C2` [Mollugin]: the “Z repl 1” value is 0.972 and the “Z Repl 2” value was determined as 0.582. Also, the “av Z” value under setting [1] was 0.777. Where the note is “average of raw data 1 and 2”, this compound showed an av puncta of 28499.6. In addition, under “puncta”, the “raw data 1” value was 38015.5 and the “raw data 2” value is reported as 18983.8.

For `Oc1cc(O)cc(-c2cc3ccc(O)cc3o2)c1` [Moracin M], the “Z repl 1” value is 0.06 and the “Z Repl 2” value is recorded as -0.745. Besides, where the note is “MCE Phenols Library screen”, the “av Z” value was -0.343. Besides, the av puncta under setting [2] amounted to 15938.9. Besides, under “raw puncta”, the “raw data 1” value was 27063.9 and the “raw data 2” value stood at 4813.92.

As for `CC(C)=CCc1c2c(c(O)c3c1O[C@]14C(=C[C@@H]5C[C@H]1C(C)(C)O[C@@]4(C/C=C(/C)C(=O)O)C5=O)C3=O)C=CC(C)(C)O2` [Morellic acid], the “Z repl 1” value was -0.656 and the “Z Repl 2” value was -0.586. Moreover, for the setting “MCE Phenols Library screen”, the “av Z” value was -0.621. Under setting [2], this compound gave an av puncta of 12492.8. Besides, under “puncta”, the “raw data 1” value came to 18474.5 and the “raw data 2” value is given as 6511.03.

For the compound `O=c1c(O)c(-c2ccc(O)cc2O)oc2cc(O)cc(O)c12` [Morin], the “Z repl 1” value is reported as -1.702 and the “Z Repl 2” value is recorded as -1.085. For the same compound, the “av Z” value (MCE Phenols Library screen) was -1.394. Also, the av puncta (average of raw data 1 and 2) was 3543.97. For the setting “puncta”, the “raw data 1” value came out at 5911.71 and the “raw data 2” value is on record as 1176.23.

In the case of `CC(C)=CCc1c(-c2ccc(O)cc2O)oc2c3c(cc(O)c2c1=O)OC(C)(C)C=C3` [Morusin], the “Z repl 1” value is given as -0.601 and the “Z Repl 2” value is given as -0.306. Moreover, the “av Z” value (MCE Phenols Library screen) was -0.454. This compound also came in with an av puncta under setting [2] of 14314.5. Further, where the note is “raw puncta”, the “raw data 1” value stood at 19129.3 and the “raw data 2” value is reported as 9499.74.

With `COc1cc2oc(-c3ccccc3)cc(=O)c2c(O)c1OC` [Mosloflavone], the “Z repl 1” value turned out to be 0.192 and the “Z Repl 2” value turned out to be 0.208. For the setting “tau seeding”, the “av Z” value was 0.2. Besides, the av puncta (average of raw data 1 and 2) was 21820.5. Further, under “puncta”, the “raw data 1” value is 28649.1 and the “raw data 2” value is on record as 14991.8.

As for `OC[C@H]1O[C@@H](Oc2cc(O)cc(/C=C/c3ccc(O[C@@H]4O[C@H](CO)[C@@H](O)[C@H](O)[C@H]4O)cc3O)c2)[C@H](O)[C@@H](O)[C@@H]1O` [Mulberroside A], the “Z repl 1” value is listed as -0.183 and the “Z Repl 2” value is recorded as -0.34. Moreover, the “av Z” value (MCE Phenols Library screen) is recorded as -0.262. The compound also showed an av puncta under setting [2] of 16641.5. Where the note is “raw puncta”, the “raw data 1” value is on record as 24150.5 and the “raw data 2” value is given as 9132.57.

On to `C=CCc1cc(OC)c(O[C@@H](C)[C@H](O)c2ccc(O)c(OC)c2)c(OC)c1` [Myrislignan], for which the “Z repl 1” value was 1.234 and the “Z Repl 2” value is 0.299. Besides, the “av Z” value under setting [1] was determined as 0.766. This compound returned an av puncta (average of raw data 1 and 2) of 28560.9. For the setting “puncta”, the “raw data 1” value stood at 41167.3 and the “raw data 2” value was determined as 15954.5.

On to `NCC(c1ccc(O)cc1)C1(O)CCCCC1` (stereo not drawn) [N,N,O-Tridesmethylvenlafaxine], for which the “AvZ (average z score of seeding, SDs from the mean level of seeding)” value (“AvZ” below) is on record as 0.955; the “Z repl 1” value is 0.959; the “Z Repl 2” value was 0.951. Besides, the av puncta (average of raw data 1 and 2) was found to be 30393. In addition, where the note is “puncta”, the “raw data 1” value is given as 37867.4 and the “raw data 2” value worked out at 22918.7.

On to `O=C(/C=C/c1ccc(O)cc1)NCCc1c[nH]c2ccc(O)cc12` [N-(p-Coumaroyl) Serotonin], for which the “AvZ” value is given as -0.185; the “Z repl 1” value came out at 0.332; the “Z Repl 2” value is -0.702. Where the note is “average of raw data 1 and 2”, this compound returned an av puncta of 17799.1. In addition, under “puncta”, the “raw data 1” value was 30331 and the “raw data 2” value turned out to be 5267.16.

With `CC(=O)NCCc1c[nH]c2ccc(O)cc12` [N-Acetyl-5-hydroxytryptamine], the “AvZ” value is -0.235; the “Z repl 1” value turned out to be 0.285; the “Z Repl 2” value is on record as -0.756. Under setting [2], this compound came in with an av puncta of 17233.8. Also, under “raw puncta”, the “raw data 1” value turned out to be 29776.2 and the “raw data 2” value is recorded as 4691.42.

Take `CC(=O)N[C@@H](Cc1ccc(O)cc1)C(=O)O` [N-Acetyl-L-tyrosine]: the “AvZ” value is on record as -0.474; the “Z repl 1” value is on record as -0.073; the “Z Repl 2” value is recorded as -0.875. Further, the av puncta under setting [2] is on record as 14449.6. For the setting “puncta”, the “raw data 1” value is 25475.6 and the “raw data 2” value is recorded as 3423.63.

With `O=C1C=CC(=O)c2c(O)ccc(O)c21` [Naphthazarin], the “Z repl 1” value was -0.196 and the “Z Repl 2” value is on record as -0.791. Also, under “MCE Phenols Library screen”, the “av Z” value is reported as -0.494. In addition, the av puncta under setting [2] was found to be 14154.5. Further, where the note is “puncta”, the “raw data 1” value is recorded as 23991 and the “raw data 2” value is on record as 4318.06.

As for `O=C1N[C@@H]2C(=C[C@H](O)[C@@H](O)[C@H]2O)c2cc3c(c(O)c21)OCO3` [Narciclasine], the “Z repl 1” value is listed as -2.127 and the “Z Repl 2” value is -0.234. Also, for the setting “MCE Phenols Library screen”, the “av Z” value is recorded as -1.181. The compound also showed an av puncta (average of raw data 1 and 2) of 5540.49. Besides, for the setting “puncta”, the “raw data 1” value was 817.989 and the “raw data 2” value was 10263.

As for `COc1cc(-c2oc3cc(O)cc(O)c3c(=O)c2O[C@@H]2O[C@H](CO[C@@H]3O[C@@H](C)[C@H](O)[C@@H](O)[C@H]3O)[C@@H](O)[C@H](O)[C@H]2O)ccc1O` [Narcissin], the “Z repl 1” value is 0.249 and the “Z Repl 2” value is given as -0.653. Besides, under “MCE Phenols Library screen”, the “av Z” value is -0.202. For the same compound, under setting [2], the av puncta is 17563.5. Under “raw puncta”, the “raw data 1” value is on record as 29338.6 and the “raw data 2” value is recorded as 5788.5.

As for `O=C(/C=C/c1ccc(O)cc1)c1c(O)cc(O)cc1O` [Naringenin chalcone], the “Z repl 1” value was -1.271 and the “Z Repl 2” value was -0.404. Also, where the note is “MCE Phenols Library screen”, the “av Z” value is reported as -0.838. This compound also came in with an av puncta (average of raw data 1 and 2) of 9770.58. Also, for the setting “puncta”, the “raw data 1” value is on record as 11089.3 and the “raw data 2” value turned out to be 8451.87.

Take `COc1cc2oc(-c3ccccc3)cc(=O)c2c(O)c1O` [Negletein]: the “Z repl 1” value was -1.009 and the “Z Repl 2” value was -0.535. In addition, the “av Z” value (MCE Phenols Library screen) is -0.772. Moreover, for the setting “average of raw data 1 and 2”, the av puncta is given as 10644.7. For the same compound, under “puncta”, the “raw data 1” value stood at 14234.4 and the “raw data 2” value is 7055.07.

On to `CC(C)=CCc1cc(-c2coc3cc(O)ccc3c2=O)ccc1O` [Neobavaisoflavone], for which the “Z repl 1” value was determined as 0.415 and the “Z Repl 2” value is listed as -0.147. The “av Z” value (tau seeding) was 0.134. Under “average of raw data 1 and 2”, this compound had an av puncta of 21263.5. Further, under “puncta”, the “raw data 1” value amounted to 31334.3 and the “raw data 2” value is on record as 11192.7.

With `O=C(/C=C/c1ccc(O)c(O)c1)O[C@@H]1C[C@@](O)(C(=O)O)C[C@@H](O)[C@@H]1O` [Neochlorogenic acid], the “Z repl 1” value is on record as -0.752 and the “Z Repl 2” value is -0.408. Also, the “av Z” value (MCE Phenols Library screen) is -0.58. Also, the av puncta under setting [2] turned out to be 12870.1. For the setting “puncta”, the “raw data 1” value is 17326.7 and the “raw data 2” value is listed as 8413.44.

As to `COc1ccc(-c2cc(=O)c3c(O)cc(O[C@@H]4O[C@H](CO)[C@@H](O)[C@H](O)[C@H]4O[C@@H]4O[C@@H](C)[C@H](O)[C@@H](O)[C@H]4O)cc3o2)cc1O` [Neodiosmin], the “Z repl 1” value stood at 1.202 and the “Z Repl 2” value is 0.25. Besides, the “av Z” value under setting [1] was 0.726. In addition, for the setting “average of raw data 1 and 2”, the av puncta was determined as 28108.4. Under “puncta”, the “raw data 1” value was determined as 40782.2 and the “raw data 2” value is recorded as 15434.5.

With `COc1ccc(CCC(=O)c2c(O)cc(O[C@@H]3O[C@H](CO)[C@@H](O)[C@H](O)[C@H]3O[C@@H]3O[C@@H](C)[C@H](O)[C@@H](O)[C@H]3O)cc2O)cc1O` [Neohesperidin dihydrochalcone], the “Z repl 1” value is listed as -0.172 and the “Z Repl 2” value is recorded as -0.225. Also, the “av Z” value (MCE Phenols Library screen) is -0.198. Further, the av puncta under setting [2] is listed as 17327.7. Besides, for the setting “raw puncta”, the “raw data 1” value is listed as 24288.2 and the “raw data 2” value was found to be 10367.2.

Turning to `C[C@@H]1O[C@@H](O[C@H]2C(=O)c3c(O)cc(O)cc3O[C@H]2c2ccc(O)c(O)c2)[C@H](O)[C@H](O)[C@H]1O` [Neoisoastilbin], the “Z repl 1” value is listed as 0.661 and the “Z Repl 2” value stood at 0.303. Moreover, the “av Z” value (tau seeding) is recorded as 0.482. Also, the av puncta (average of raw data 1 and 2) turned out to be 25148.1. In addition, under “puncta”, the “raw data 1” value worked out at 34290.2 and the “raw data 2” value was 16006.

In the case of `O=C(/C=C/c1ccc(O)cc1)c1ccc(O[C@@H]2O[C@H](CO)[C@@H](O)[C@H](O)[C@H]2O)cc1O` [Neoisoliquiritin], the “Z repl 1” value is -0.046 and the “Z Repl 2” value came to 0.369. Also, the “av Z” value (tau seeding) is 0.161. The compound further returned an av puncta (average of raw data 1 and 2) of 21249.5. Further, where the note is “puncta”, the “raw data 1” value turned out to be 25794.8 and the “raw data 2” value is reported as 16704.1.

On to `O=C1C[C@@H](c2ccc(O)cc2)Oc2cc(O[C@@H]3O[C@H](CO)[C@@H](O)[C@H](O)[C@H]3O)ccc21` [Neoliquiritin], for which the “Z repl 1” value is on record as -0.356 and the “Z Repl 2” value is -0.555. Moreover, the “av Z” value (MCE Phenols Library screen) is on record as -0.455. Under setting [2], this compound registered an av puncta of 14458.7. For the setting “puncta”, the “raw data 1” value worked out at 22080.4 and the “raw data 2” value is given as 6836.97.

For the compound `COc1c(O)cc2oc(-c3ccc(O)c(O)c3)cc(=O)c2c1O` [Nepetin], the “Z repl 1” value is given as -0.728 and the “Z Repl 2” value is -0.807. Moreover, the “av Z” value (MCE Phenols Library screen) was -0.768. Under “average of raw data 1 and 2”, this compound yielded an av puncta of 10877.8. Besides, for the setting “puncta”, the “raw data 1” value is 17608.6 and the “raw data 2” value was found to be 4146.93.
